Test results: patent US20220193021A1 (priority 2019, published 2022)
Counter-ions that a name gives are not always drawn.

Experiments:
Assay type in all cases: cell-based
[1] = tested on: influenza virus protein hemagglutinin 0 (HA0)
[2] = tested on: serine proteases (TMPRSS4, TMPRSS11D, TMPRSS2, and DESC1); experiment: mRNA levels of serine proteases in human lung airway chips; settings: 10 μM versus vehicle
[3] = tested on: serine proteases (TMPRSS4, TMPRSS11D, TMPRSS2, and DESC1); experiment: Protein levels of serine proteases in human lung airway chips; settings: 10 μM versus vehicle
Source text: Protein levels of chips treated with nafamostat mesylate are relative to chips not treated with nafamostat mesylate.

influenza virus = tested on: influenza virus

Structure (SMILES)	effect on the cleavage of HA0 [1]	effect on mRNA expression of serine proteases [2]	effect on protein expression of serine proteases [3]	therapeutic window (influenza virus)
N=C(N)c1ccc2cc(OC(=O)c3ccc(N=C(N)N)cc3)ccc2c1 [nafamostat mesylate]	efficiently block	no effect	no effect	
CCOC(=O)C1=C[C@@H](OC(CC)CC)[C@H](NC(C)=O)[C@@H](N)C1 [oseltamivir]				approximately 48 hours
